Earlier results in patent US20060269596A1, “Controlled release compositions comprising an acylanilide” (priority 2005, published 2006).

What was measured:
[1] = 37 C

absorption following oral administration (oral): well-absorbed
effect of co-administration with food on rate or extent of absorption (with food): no clinically significant effect
solubility in water [1]: 5 mg per 1000 mL
SMILES: CC(O)(CS(=O)(=O)c1ccc(F)cc1)C(=O)Nc1ccc(C#N)c(C(F)(F)F)c1 (racemic) [Bicalutamide]
